Data from patent US5989846A, “Assays to identify inducers of plant defense resistance” (Rutgers, The State University of New Jersey, priority 1995, dated 1999).

How the values were obtained:
[1] = test system: salicylic acid binding protein; assay: Competitive [14C] salicylic acid binding assay (spin-column); parameters: species or system tobacco; details: [14C] salicylic acid 20 μM
Summary of the method: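 Plant-fractionated binding protein incubated 2 hr at 4 °C with 5 μM-20 μM [14C]salicylic acid, with analogues added to the mixture as competitors. Bound ligand separated from free by spin-column gel exclusion (6 kDa limit) and counted; binding activity compared with analogue-free controls.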

guaiacol peroxidases = assay: Guaiacol peroxidase activity in tobacco leaf extracts; assay type: biochemical, Nicotiana tabacum cv. Xanthi nc
Description: Inhibition of peroxidase by SA and INA was determined by measuring the enzyme activities in extracts prepared from tobacco leaves in the absence or presence of 100 μM or 1000 μM SA or INA. Two grams of leaves from 6-8 week old tobacco plants (Nicotiana tabacum cv. Xanthi nc) grown at 22° C. in a 14 hr light cycle were homogenized under liquid nitrogen using a pestle and mortar.
Total guaiacol peroxidase activity was extracted with 100 mM potassium phosphate, pH 6.2, containing 1% (weight/volume) polyvinylpyrrolidone. In order to also extract the ionically bound cell wall isozymes, the extraction buffer was supplemented with 600 mM KCl. Extraction and centrifugation steps were as described for ascorbate peroxidase. After removal of cell debris and ammonium sulfate precipitation (85%), the extract was desalted against 50 mM potassium phosphate, pH 6, containing 25% glycerol. The extract could be stored at -20° C. without significant loss of peroxidase activity.
(§1) Guaiacol peroxidase activity was determined by the method of Chance and Maehly (Methods Enzymol. 2: 764 (1955)) using guaiacol as the substrate.
(§2) The formation of tetraguaiacol was monitored at 470 nm. The reaction mixture contained 0.25% guaiacol and 100 mM hydrogen peroxide in 20 mM potassium phosphate, pH 6.2. The amount of protein per 1 ml assay was […]. The reaction was measured for five minutes. The assay for horseradish peroxidase was identical, except that only 0.2-0.5 μg protein was used.

horseradish peroxidase = target: T1, horseradish peroxidase (Armoracia rusticana, UniProt P00433); assay: Horseradish peroxidase activity; assay type: biochemical
T1 construct: purchased Sigma
T1 sequence (P00433 31-353): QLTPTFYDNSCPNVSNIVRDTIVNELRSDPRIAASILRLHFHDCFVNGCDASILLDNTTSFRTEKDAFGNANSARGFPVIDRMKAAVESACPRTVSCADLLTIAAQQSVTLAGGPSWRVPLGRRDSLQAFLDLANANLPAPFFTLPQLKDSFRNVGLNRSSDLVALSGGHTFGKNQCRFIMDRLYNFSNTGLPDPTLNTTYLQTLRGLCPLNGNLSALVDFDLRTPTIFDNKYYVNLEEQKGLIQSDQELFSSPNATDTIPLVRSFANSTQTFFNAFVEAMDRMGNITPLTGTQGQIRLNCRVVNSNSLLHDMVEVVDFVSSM
Description: Horseradish peroxidase (1 mg; obtained from Sigma) was dissolved in 1.5 ml 200 mM potassium phosphate, pH 6.2, containing 150 mM NaCl. Following a 15 minute incubation at room temperature, the enzyme solution was centrifuged (10,000 g, 10 minutes). After buffer exchange (PD-10, equilibrated with 25 mM potassium phosphate, pH 6.2), the protein concentration was adjusted to 0.5 mg/ml.
as §1, §2

plant processes = test system: plant processes; parameters: key: +: induces or enhances; -: reduces or inhibits; details: addition of salicylic acid to plants; cited from earlier work
[2] = test system: resistance or PR gene expression; parameters: key: ++: indicates a high level of biological activity; +: indicates a lower level of biological activity; ±: indicates low, but detectable biological activity in some assays; -: indicates no biological activity; details: Table 3; values reported in literature; cited from earlier work

O=C(O)c1ccccc1O [salicylic acid, 2-hydroxybenzoic acid]
Inhibition (%) 2× ([1]; 40 μM (2×) unlabeled competitor): 50%
Inhibition (%) 10× ([1]; 200 μM (10×) unlabeled competitor): 91%
Activity (guaiacol peroxidases; POX, 100 μM compound): 2.7 ± 0.3 μmols of oxidized substrate mi
Inhibition (guaiacol peroxidases; POX, 100 μM compound): 3%
Activity (guaiacol peroxidases; POX, 1,000 μM compound): 2.7 ± 0.4 μmols of oxidized substrate mi
Inhibition (guaiacol peroxidases; POX, 1,000 μM compound): 3%
Activity (horseradish peroxidase; HRP, 100 μM compound): 251 ± 11 μmols of oxidized substrate mi
inhibition at 100 µM (horseradish peroxidase; HRP, 100 μM compound): -4%
Activity (horseradish peroxidase; HRP, 1,000 μM compound): 237 ± 21 μmols of oxidized substrate mi
inhibition at 1000 µM (horseradish peroxidase; HRP, 1,000 μM compound): 1%
Effect on Adventitious root initiation (plant processes): +
Effect on Alternative pathway (plant processes): +
Effect on Disease resistance (plant processes): +
Effect on Ethylene biosynthesis (plant processes): -
Effect on Flowering (plant processes): +
Effect on Fruit yield (plant processes): +
Effect on Gene regulation (plant processes): +
Effect on Glycolysis (plant processes): +
Effect on Growth inhibition (plant processes): +
Effect on Krebs cycle (plant processes): +
Effect on Leaf abscission (plant processes): -
Effect on Photonastic leaflet movement (plant processes): +
Effect on Potassium ion absorption (plant processes): -
Effect on Scotonastic leaflet movement (plant processes): -
Effect on Seed germination (plant processes): - and +
Effect on Somatic embryogenesis (plant processes): -
Effect on Stomatal closure (plant processes): -
Effect on Thermogenesis (plant processes): +
Effect on Transpiration (plant processes): -
Effect on Wound response (plant processes): -
Biological activity [2]: ++
